target: T1, mGlyT-1b (Mus musculus, UniProt P28571); test: Glycine uptake inhibition assay (mGlyT-1b); type: cell-based; conditions: inhibition of [3H]-glycine uptake in Flp-in-CHO cells transfected with mGlyT-1b cDNA; 20 min preincubation at 22° C.; read-out: IC50 (μM) at GlyT-1
T1 construct: host or cells: Flp-in-CHO
T1 sequence (P28571 1-651 isoform P28571-2): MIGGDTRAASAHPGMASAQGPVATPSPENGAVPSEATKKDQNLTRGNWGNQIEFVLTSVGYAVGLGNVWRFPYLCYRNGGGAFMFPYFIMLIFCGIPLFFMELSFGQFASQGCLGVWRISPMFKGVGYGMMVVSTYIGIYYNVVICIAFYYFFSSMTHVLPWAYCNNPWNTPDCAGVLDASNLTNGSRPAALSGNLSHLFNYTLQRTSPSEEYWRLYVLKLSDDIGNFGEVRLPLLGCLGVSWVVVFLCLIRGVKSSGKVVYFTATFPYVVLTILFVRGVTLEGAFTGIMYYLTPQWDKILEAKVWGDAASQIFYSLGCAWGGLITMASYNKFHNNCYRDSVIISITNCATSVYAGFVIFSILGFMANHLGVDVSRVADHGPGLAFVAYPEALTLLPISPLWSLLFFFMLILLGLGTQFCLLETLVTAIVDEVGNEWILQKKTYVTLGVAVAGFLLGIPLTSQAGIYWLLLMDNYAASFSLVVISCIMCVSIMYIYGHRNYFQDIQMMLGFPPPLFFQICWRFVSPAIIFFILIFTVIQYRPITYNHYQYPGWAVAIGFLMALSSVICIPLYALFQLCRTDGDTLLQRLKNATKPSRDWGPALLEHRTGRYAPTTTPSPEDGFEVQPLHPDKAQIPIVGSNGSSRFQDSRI
Description: DMEM complete medium: Nutrient mixture F-12 (Gibco Life-technologies), fetal bovine serum (FBS) 5%, (Gibco life technologies), Penicillin/Streptomycin1% (Gibco life technologies), Hygromycin 0.6 mg/ml (Gibco life technologies), Glutamine 1 mM Gibco life technologies)
Uptake buffer (UB): 150 mM NaCl, 10 mM Hepes-Tris, pH 7.4, 1 mM CaCl2, 2.5 mM KCl, 2.5 mM MgSO4, 10 mM (+) D-glucose.
Flp-in™-CHO (Invitrogen Cat n^o R758-07) cells stably transfected with mGlyT1b cDNA.
Glycine Uptake Inhibition Assay (mGlyT-1b)
On day 1 mammalian cells, (Flp-in™-CHO), transfected with mGlyT-1b cDNA, were plated at the density of 40,000 cells/well in complete F-12 medium, without hygromycin in 96-well culture plates. On day 2, the medium was aspirated, and the cells were washed twice with uptake buffer (UB). The cells were then incubated for 20 min at 22° C. with either (i) no potential competitor, (ii) 10 mM non-radioactive glycine, (iii) a concentration of a potential inhibitor. A range of concentrations of the potential inhibitor was used to generate data for calculating the concentration of inhibitor resulting in 50% of the effect (e.g. IC50, the concentration of the competitor inhibiting glycine uptake of 50%). A solution was then immediately added containing [^3H]-glycine 60 nM (11-16 Ci/mmol) and 25 μM non-radioactive glycine. The plates were incubated with gentle shaking, and the reaction was stopped by aspiration of the mixture and washing (three times) with ice-cold UB. The cells were lysed with scintillation liquid, shaken 3 hours, and the radioactivity in the cells was counted using a scintillation counter.

| Compound | IC50 [µM] |
| --- | --- |
| C[C@H](Oc1ccc(S(C)(=O)=O)cc1C(=O)N1Cc2ccc(OC(F)(F)F)cc2C1)C(F)(F)F [Example 103, [5-Methanesulfonyl-2-((S)-2,2,2-trifluoro-1-methyl-ethoxy)-phenyl]-(5-trifluoro-methoxy-1,3-dihydro-isoindol-2-yl)-methanone] | 0.046 |
| C[C@H](Oc1ccc(S(C)(=O)=O)cc1C(=O)N1Cc2cc(F)c(OC3CCOCC3)cc2C1)C(F)(F)F [Example 377, [5-Fluoro-6-(tetrahydro-pyran-4-yloxy)-1,3-dihydro-isoindol-2-yl]-[5-methanesulfonyl-2-((S)-2,2,2-trifluoro-1-methyl-ethoxy)-phenyl]-methanone] | 0.007 |
| C[C@H](Oc1ccc(S(C)(=O)=O)cc1C(=O)N1Cc2ccc(CC(F)(F)F)cc2C1)C(F)(F)F [Example 290, [5-Methanesulfonyl-2-((S)-2,2,2-trifluoro-1-methyl-ethoxy)-phenyl]-[5-(2,2,2-tri-fluoro-ethyl)-1,3-dihydro-isoindol-2-yl]-methanone] | 0.022 |
| CS(=O)(=O)c1ccc(OCC2CCC2)c(C(=O)N2Cc3cnc(C(F)(F)F)cc3C2)c1 [Example 118, (2-Cyclobutyl-methoxy-5-methane-sulfonyl-phenyl)-(6-trifluoromethyl-1,3-dihydro-pyrrolo [3,4-c]pyridin-2-yl)-methanone] | 0.038 |
| CCc1cc2c(cc1C1CCOCC1)CN(C(=O)c1cc(S(C)(=O)=O)ccc1O[C@@H](C)C(F)(F)F)C2 [Example 306, [5-Ethyl-6-(tetrahydro-pyran-4-yl)-1,3-dihydro-isoindol-2-yl]-[5-methanesulfonyl-2-((S)-2,2,2-trifluoro-1-methyl-ethoxy)-phenyl]-methanone] | 0.087 |
| Cc1cc2c(cc1Cl)CN(C(=O)c1cc(S(C)(=O)=O)ccc1OCC(C)C)C2 [Example 56, (5-Chloro-6-methyl-1,3-dihydro-isoindol-2-yl)-(2-isobutoxy-5-methanesulfonyl-phenyl)-methanone] | 0.016 |
| C[C@H](Oc1ccc(S(C)(=O)=O)cc1C(=O)N1Cc2ccc(-n3cccn3)cc2C1)C(F)(F)F [Example 347] | 0.043 |
| C[C@H](Oc1ccc(S(C)(=O)=O)cc1C(=O)N1Cc2cc(F)c(C3CCOCC3)cc2C1)C(F)(F)F [Example 366, [5-Fluoro-6-(tetrahydro-pyran-4-yl)-1,3-dihydro-isoindol-2-yl]-[5-methanesulfonyl-2-((S)-2,2,2-trifluoro-1-methyl-ethoxy)-phenyl]-methanone] | 0.002 |
| CS(=O)(=O)c1ccc(-c2ccccc2)c(C(=O)N2CCc3c(C#N)cccc32)c1 [Example 204, 1-(4-Methanesulfonyl-biphenyl-2-carbonyl)-2,3-dihydro-1H-indole-4-carbonitrile] | 0.019 |
| Cc1cc(-c2ccc3c(c2)CN(C(=O)c2cc(S(C)(=O)=O)ccc2O[C@@H](C)C(F)(F)F)C3)cs1 [Example 170, [5-Methanesulfonyl-2-((S)-2,2,2-trifluoro-1-methyl-ethoxy)-phenyl]-[5-(5-methyl-thiophen-3-yl)-1,3-dihydro-isoindol-2-yl]-methanone] | 0.048 |
| C[C@H](Oc1ccc(S(C)(=O)=O)cc1C(=O)N1Cc2cc(Cl)c(N3C[C@@H]4C[C@H]3CO4)cc2C1)C(F)(F)F [Example 365, ((1S,4S)-5-Chloro-6-2-oxa-5-aza-bicyclo[2.2.1]hept-5-yl-1,3-dihydro-isoindol-2-yl)-[5-methanesulfonyl-2-((S)-2,2,2-trifluoro-1-methyl-ethoxy)-phenyl]-methanone] | 0.033 |
| C[C@@H](Oc1ccc(S(C)(=O)=O)cc1C(=O)N1Cc2ccc(C(F)(F)F)cc2C1)C(F)(F)F [Example 17, [5-Methanesulfonyl-2-((R)-2,2,2-trifluoro-1-methyl-ethoxy)-phenyl]-(5-trifluoromethyl-1,3-dihydro-isoindol-2-yl)-methanone] | 0.012 |

Further compounds by falling IC50, results first:

| IC50 [µM] | Compound |
| --- | --- |
| 0.046 | COC(=O)c1cccc2c1CCN2C(=O)c1cc(S(C)(=O)=O)ccc1O[C@@H](C)C(F)(F)F [Example 205, 1-[5-Methanesulfonyl-2-((S)-2,2,2-trifluoro-1-methyl-ethoxy)-benzoyl]-2,3-dihydro-1H-indole-4-carboxylic acid methyl ester] |
| 0.043 | C[C@H](Oc1ccc(S(C)(=O)=O)cc1C(=O)N1Cc2ccc(N3CCCC(F)(F)C3)cc2C1)C(F)(F)F [Example 287, [5-(3,3-Difluoro-piperidin-1-yl)-1,3-dihydro-isoindol-2-yl]-[5-methanesulfonyl-2-((S)-2,2,2-trifluoro-1-methyl-ethoxy)-phenyl]-methanone] |
| 0.041 | COC(=O)c1cccc2c1CCN2C(=O)c1cc(S(C)(=O)=O)ccc1OC(C)C [Example 206, 1-(2-Isopropoxy-5-methanesulfonyl-benzoyl)-2,3-dihydro-1#H!-indole-4-carboxylic acid methyl ester] |
| 0.037 | CCSc1cc2c(cc1C(F)(F)F)CN(C(=O)c1cc(S(C)(=O)=O)ccc1O[C@@H](C)C(F)(F)F)C2 [Example 217, (5-Ethylsulfanyl-6-trifluoromethyl-1,3-dihydro-isoindol-2-yl)-[5-methanesulfonyl-2-((S)-2,2,2-trifluoro-1-methyl-ethoxy)-phenyl]-methanone] |
| 0.033 | Cc1csc(-c2ccc3c(c2)CN(C(=O)c2cc(S(C)(=O)=O)ccc2O[C@@H](C)C(F)(F)F)C3)n1 [Example 168, [5-Methanesulfonyl-2-((S)-2,2,2-trifluoro-1-methyl-ethoxy)-phenyl]-[5-(4-methyl-thiazol-2-yl)-1,3-dihydro-isoindol-2-yl]-methanone] |
| 0.032 | CS(=O)(=O)c1ccc(-c2ccc(F)cc2)c(C(=O)N2Cc3cc(Cl)c(N4CCOCC4)cc3C2)c1 [Example 256, (5-Chloro-6-morpho-lin-4-yl-1,3-dihydro-isoindol-2-yl)-(4′-fluoro-4-methane-sulfonyl-biphenyl-2-yl)-methanone] |
| 0.029 | CS(=O)(=O)c1ccc(OCC2CC2)c(C(=O)N2Cc3ccc(C4CCOCC4)cc3C2)c1 [Example 271, (2-Cyclopropyl-methoxy-5-methane-sulfonyl-phenyl)-[5-(tetrahydro-pyran-4-yl)-1,3-dihydro-isoindol-2-yl]-methanone] |
| 0.022 | CS(=O)(=O)c1ccc(OCC2CCC2)c(C(=O)N2Cc3cc(Cl)c(N4CCOCC4)cc3C2)c1 [Example 249, (5-Chloro-6-morpho-lin-4-yl-1,3-dihydro-isoindol-2-yl)-(2-cyclobutylmethoxy-5-methanesulfonyl-phenyl)-methanone] |
| 0.014 | C[C@H](Oc1ccc(S(C)(=O)=O)cc1C(=O)N1Cc2ccc(C3CCOCC3)cc2C1)C(F)(F)F [Example 269, [5-Methanesulfonyl-2-((S)-2,2,2-trifluoro-1-methyl-ethoxy)-phenyl]-[5-(tetrahydro-pyran-4-yl)-1,3-dihydro-isoindol-2-yl]-methanone] |
| 0.013 | C[C@H](Oc1ccc(S(C)(=O)=O)cc1C(=O)N1Cc2ccc(-c3ccccc3)cc2C1)C(F)(F)F [Example 323, [5-Methanesulfonyl-2-((S)-2,2,2-trifluoro-1-methyl-ethoxy)-phenyl]-(5-phenyl-1,3-dihydro-isoindol-2-yl)-methanone] |
| 0.003 | Cc1cc(-c2ccc3c(c2)CN(C(=O)c2cc(S(C)(=O)=O)ccc2O[C@@H](C)C(F)(F)F)C3)ccn1 [Example 169, [5-Methanesulfonyl-2-((S)-2,2,2-trifluoro-1-methyl-ethoxy)-phenyl]-[5-(2-methyl-pyridin-4-yl)-1,3-dihydro-isoindol-2-yl]-methanone] |
| 0.0015 | C[C@H](Oc1ccc(S(C)(=O)=O)cc1C(=O)N1Cc2ccc(OC3CCOCC3)cc2C1)C(F)(F)F [Example 367, [5-Methanesulfonyl-2-((S)-2,2,2-trifluoro-1-methyl-ethoxy)-phenyl]-[5-(tetrahydro-pyran-4-yloxy)-1,3-dihydro-isoindol-2-yl]-methanone] |

From US8188139B2, “Heterocyclic-substituted phenyl methanones” (Hoffman-La Roche Inc., priority 2005, dated 2012)
